Test results taken from publication PMC12723664, “A high-quality chromosome-level genome assembly of the oligophagous fruit fly Bactrocera tsuneonis (Diptera: Tephritidae) and insights into its host specificity” (GigaScience, 2025).
Entries after “also recorded” stand apart in the source; their conditions may differ.

Key:
BtsuOBP83a = experiment: Fluorescence competitive binding assay (1-NPN probe), recombinant BtsuOBP83a; design: species or system Bactrocera tsuneonis; conditions: for Ki: relative dissociation constant calculated from IC50, competition with 1-NPN, ligand 4–32 μmol/L, pH 7.4, read-out: Ki (μM) OBP83a; for binding to BtsuOBP83a (in words): fluorescence competitive binding assay
Description: (§1) Full-length sequences of BtsuOBP83a and BtsuOBP83b were amplified using specific primers (Supplementary Table S1). Purified PCR products were cloned into the pGEM-T vector (Promega) for sequencing verification. The confirmed target fragments were then subcloned into the pET-30a(+) expression vector (Sangon) using restriction enzymes (Supplementary Table S2) and T4 DNA ligase (Takara). Recombinant plasmids were transformed into Escherichia coli BL21 (DE3) competent cells (Tiangen). Bacterial cultures were grown to an OD600 of 0.6–0.8, after which protein expression was induced by adding isopropyl-β-D-thiogalactopyranoside (IPTG) (Solarbio) to a final concentration of 1 mM at different temperatures. Cells were harvested by centrifugation (5,000 × g, 15 minutes), lysed in phosphate-buffered saline buffer via sonication, and subjected to sodium dodecyl sulfate–polyacrylamide gel electrophoresis (SDS-PAGE) analysis after heat treatment. Large-scale protein expression was performed under optimized induction conditions. Soluble proteins in the supernatant were purified twice using Ni-affinity chromatography (GE Healthcare). His-tags were removed using enterokinase (Novoprotein). All purification steps were conducted at 4°C. The size and purity of OBP proteins were evaluated via SDS-PAGE, and protein concentrations were determined using the Bradford method.
(§2) The ligand-binding affinities of candidate OBPs were evaluated using fluorescence competitive binding assays performed on an F-380 Fluorescence Spectrophotometer (Tianfang), with modifications to the standard procedure. Purified OBP proteins were diluted to a final concentration of 2 μmol/L in 50 mmol/L Tris-HCl buffer (pH 7.4). The fluorescent probe N-phenyl-1-naphthylamine (1-NPN) and all candidate volatile ligands were dissolved in high-performance liquid chromatography–grade methanol at an initial concentration of 1 mmol/L. The binding constant between OBPs and 1-NPN was determined by recording emission spectra from 350 to 470 nm at an excitation wavelength of 337 nm. To establish binding saturation, titrations were conducted by sequentially adding 1-NPN to the protein solution, reaching final concentrations of 2–20 μmol/L in 2-μmol/L increments. Fluorescence intensity was measured after stabilization, and each measurement was performed in triplicate. […] Each experiment was conducted in triplicate. Dissociation constants (Ki) for the volatile ligands were calculated from the corresponding IC50 values using the following equation: […]

BtsuOBP83b = experiment: Fluorescence competitive binding assay (1-NPN probe), recombinant BtsuOBP83b; design: species or system Bactrocera tsuneonis; conditions: for Ki: relative dissociation constant calculated from IC50, competition with 1-NPN, ligand 4–32 μmol/L, pH 7.4, read-out: Ki (μM) OBP83b
Description: as §1, §2

Compound	Ki (BtsuOBP83a)	Ki (BtsuOBP83b)	binding to BtsuOBP83a (in words) (BtsuOBP83a)	Kd (BtsuOBP83a; BtsuOBP83a 2 μmol/L, 50 mmol/L Tris-HCl pH 7.4, 1-NPN 2–20 μmol/L, Scatchard, read-out: dissociation constants (Kd) for 1-NPN)	Kd (BtsuOBP83b; BtsuOBP83b 2 μmol/L, 50 mmol/L Tris-HCl pH 7.4, 1-NPN 2–20 μmol/L, Scatchard, read-out: dissociation constants (Kd) for 1-NPN)
CC1=CCCC1 [1-Methylcyclopentene]	> 50 µM	> 50 µM	–	–	–
CCc1ccco1 [2-Ethylfuran]	> 50 µM	> 50 µM	–	–	–
CCC/C=C/COC(=O)CC [trans-2-Hexenyl propionate]	> 50 µM	> 50 µM	–	–	–
CCCCC(=O)OCC [Ethyl valerate]	> 50 µM	> 50 µM	–	–	–
C=C1CC/C=C(/C)CC[C@@H]2[C@@H]1CC2(C)C [Isocaryophyllene]	> 50 µM	> 50 µM	–	–	–
COc1cc(C)ccc1C(C)C [2-Isopropyl-5-methylanisole]	> 50 µM	> 50 µM	–	–	–
CCCCCCCCO [1-Octanol]	36.4 µM	39.1 µM	–	–	–
CCOC(C)=O [Ethylacetate]	> 50 µM	33 µM	–	–	–
CC1=CCCC(C)(C)C12CCC(C)O2 (stereo not drawn) [Theaspirane]	> 50 µM	> 50 µM	–	–	–
CC(=O)OC/C=C(/C)CCC=C(C)C [Neryl acetate]	> 50 µM	> 50 µM	–	–	–
CC(C)c1ccccc1 [Cumene]	> 50 µM	> 50 µM	–	–	–
CCCC(=O)OCCC(C)C [Isoamyl butyrate]	> 50 µM	> 50 µM	–	–	–
CCCCCC=O [Hexanal]	40.7 µM	33.7 µM	–	–	–
C/C=C/C(=O)OCC [Ethyl crotonate]	> 50 µM	> 50 µM	–	–	–
CC(=O)OCCC(C)C [Isoamyl acetate]	> 50 µM	33.5 µM	–	–	–
CC/C=C\CCO [cis-3-Hexen-1-ol]	32.1 µM	31.8 µM	–	–	–
C=Cc1ccccc1 [Styrene]	> 50 µM	> 50 µM	–	–	–
Cc1ccc(C(C)C)cc1O [Carvacrol]	> 50 µM	> 50 µM	–	–	–
CC(C)CCO [Isopentyl alcohol]	> 50 µM	40.2 µM	–	–	–
CCCCCCCCCCCCF [1-Fluorododecane]	> 50 µM	> 50 µM	–	–	–
CCCCOC(=O)CCC [Butyl butyrate]	> 50 µM	> 50 µM	–	–	–
CCC/C=C/COC(=O)CCC [trans-2-Hexenyl Butyrate]	> 50 µM	28.5 µM	–	–	–

Compound	Ki (BtsuOBP83a)	Ki (BtsuOBP83b)	binding to BtsuOBP83a (in words) (BtsuOBP83a)	Kd (BtsuOBP83a; BtsuOBP83a 2 μmol/L, 50 mmol/L Tris-HCl pH 7.4, 1-NPN 2–20 μmol/L, Scatchard, read-out: dissociation constants (Kd) for 1-NPN)	Kd (BtsuOBP83b; BtsuOBP83b 2 μmol/L, 50 mmol/L Tris-HCl pH 7.4, 1-NPN 2–20 μmol/L, Scatchard, read-out: dissociation constants (Kd) for 1-NPN)
C=CC(C)(O)CC/C=C(\C)CCC=C(C)C (stereo not drawn) [trans-Nerolidol]	9.36 µM	> 50 µM	selectively binds; also recorded: binds strongly; also recorded: strong binding affinity	–	–
CC1=CCC2CC1C2(C)C (stereo not drawn) [alpha-Pinene]	49.2 µM	> 50 µM	–	–	–
CCCCCCCCOC(C)=O [Octyl acetate]	> 50 µM	> 50 µM	–	–	–
CCCCC/C=C/C(=O)OCC [Ethyl trans-2-octenoate]	46.3 µM	> 50 µM	–	–	–
CCCCCC(=O)OCCC [Propyl Hexanoate]	> 50 µM	> 50 µM	–	–	–
CCCC=CC=O [2-Hexenal]	42.7 µM	31.9 µM	–	–	–
CC1=CC(=O)C(C(C)C)CC1 (stereo not drawn) [Piperitone]	17.9 µM	> 50 µM	selectively binds; also recorded: binds strongly; also recorded: strong binding affinity	–	–
CCCCCC(=O)OCC [Ethyl hexanoate]	> 50 µM	> 50 µM	–	–	–
CCCCOC(=O)CC [Butyl propionate]	> 50 µM	> 50 µM	–	–	–
CCOC(=O)C(C)CC (stereo not drawn) [Ethyl 2-methylbutyrate]	> 50 µM	> 50 µM	–	–	–
CC(C)=CCC/C(C)=C\CO [Nerol]	> 50 µM	> 50 µM	–	–	–
CCCCCCCC(=O)OCCCC [Butyl caprylate]	> 50 µM	> 50 µM	–	–	–
CCCCOC(=O)C(C)CC (stereo not drawn) [Butyl 2-methylbutyrate]	> 50 µM	> 50 µM	–	–	–
CC1=C[C@@H]2C(=C(C)CC[C@H]2C(C)C)CC1 [(+)-delta-Cadinene]	> 50 µM	> 50 µM	–	–	–
CC1=CC[C@@H](C(C)(C)O)CC1 [(L)-alpha-terpineol]	> 50 µM	> 50 µM	–	–	–
CCc1ccccc1 [Ethylbenzene]	> 50 µM	> 50 µM	–	–	–
C#Cc1cccc(N)c1 [3-Ethynylaniline]	> 50 µM	> 50 µM	–	–	–
C=C1CC/C=C(\C)CC[C@@H]2[C@@H]1CC2(C)C [beta-Caryophyllene]	> 50 µM	> 50 µM	–	–	–
c1ccc(Nc2cccc3ccccc23)cc1 [1-NPN, N-phenyl-1-naphthylamine, reference compound]	–	–	–	5.48 µM	6.92 µM
CC/C=C\CCOC(=O)CC [cis-3-Hexenyl propionate]	> 50 µM	> 50 µM	–	–	–
CCCCCCO [1-Hexanol]	> 50 µM	31.8 µM	–	–	–
C=C(C)[C@H]1CC=C(C)C(=O)C1 [d-Carvone]	> 50 µM	> 50 µM	–	–	–
